Reference: US6355799B1, “Substituted benzene compounds, process for their preparation, and herbicidal and defoliant compositions containing them” (ISK Americas Incorporated, priority 1997, dated 2002)

Experiments:
Assay type in all cases: in vivo
[1] = test system: redroot pigweed (Amaranthus retroflexus, AMARE); assay: Pre-emerge test, greenhouse herbicide activity screening; conditions: pre-emerge, phytotoxicity rating 0-100 at 14 days after application
Method in brief: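 Sandy loam pots; pre-emerge: sown 1 d pre-spray, surface-watered after, then bottom-watered. Post-emerge: sown 8–21 d before, 2–3 leaf stage, + 0.25% v/v NIS, bottom-watered. Acetone, 187 l/ha track spray, 15–1000 g ai/ha. 0–100 injury score, day 14.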

[2] = test system: johnsongrass (Sorghum halepense, SORHA); assay: as above; conditions: pre-emerge, phytotoxicity rating 0-100 at 14 days after application
Method in brief: (§1)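 Herbicidal damage is scored 0 (none) to 100 (complete plant death) two weeks after a simulated field spray. Rates span 15–1000 g ai/ha, delivered in acetone at 187 l/ha. For post-emergence treatments, plants have 2–3 leaves and the spray carries 0.25% v/v non-ionic surfactant.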

[3] = test system: green foxtail (Setaria viridis, SETVI); assay: as above; conditions: pre-emerge, phytotoxicity rating 0-100 at 14 days after application
Method in brief: as §1

[4] = test system: velvetleaf (Abutilon theophrasti, ABUTH); assay: as above; conditions: pre-emerge, phytotoxicity rating 0-100 at 14 days after application
Method in brief: as §1

[5] = test system: large crabgrass (Digitaria sanguinalis, DIGSA); assay: as above; conditions: pre-emerge, phytotoxicity rating 0-100 at 14 days after application
Method in brief: as §1

[6] = test system: ivyleaf morningglory (Ipomoea hederacea, IPOHE); assay: as above; conditions: pre-emerge, phytotoxicity rating 0-100 at 14 days after application
Method in brief: as §1

[7] = test system: barnyardgrass (Echinochloa crus-galli, ECHCG); assay: as above; conditions: pre-emerge, phytotoxicity rating 0-100 at 14 days after application
Method in brief: as §1

[8] = test system: sicklepod (Cassia obtusifolia, CASOB); assay: as above; conditions: pre-emerge, phytotoxicity rating 0-100 at 14 days after application
Method in brief: as §1

[9] = test system: lambsquarters (Chenopodium album, CHEAL); assay: as above; conditions: pre-emerge, phytotoxicity rating 0-100 at 14 days after application
Method in brief: as §1

[10] = test system: upland rice (Oryza sp., var. Tebonnet, RICE); assay: Pre-emerge test, crop safety; conditions: crop damage, pre-emerge, phytotoxicity rating 0-100 at 14 days after application
Method in brief: (§2)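 Applied at 15–1000 g ai/ha from acetone in 187 l/ha spray volume. Post-emergence applications included 0.25% v/v non-ionic surfactant and reached plants sown 8–21 days before. Pre-emergence applications were incorporated by surface watering. Efficacy or crop damage was rated on a 0–100 scale after 14 days.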

[11] = test system: field corn (Zea mays L., var. Dekalb 535, CORN); assay: Pre-emerge test, crop safety; conditions: crop damage, pre-emerge, phytotoxicity rating 0-100 at 14 days after application
Method in brief: as §2

SMILES | Pre-emerge Herbicidal Activity AMARE ([1]; rate 63 g ai/ha) | Pre-emerge Herbicidal Activity AMARE ([1]; rate 250 g ai/ha) | Pre-emerge Herbicidal Activity SORHA ([2]; rate 63 g ai/ha) | Pre-emerge Herbicidal Activity SORHA ([2]; rate 250 g ai/ha) | Pre-emerge Herbicidal Activity SETVI ([3]; rate 63 g ai/ha) | Pre-emerge Herbicidal Activity SETVI ([3]; rate 250 g ai/ha) | Pre-emerge Herbicidal Activity ABUTH ([4]; rate 63 g ai/ha) | Pre-emerge Herbicidal Activity ABUTH ([4]; rate 250 g ai/ha) | Pre-emerge Herbicidal Activity DIGSA ([5]; rate 63 g ai/ha) | Pre-emerge Herbicidal Activity DIGSA ([5]; rate 250 g ai/ha) | Pre-emerge Herbicidal Activity IPOHE ([6]; rate 63 g ai/ha) | Pre-emerge Herbicidal Activity IPOHE ([6]; rate 250 g ai/ha) | Pre-emerge Herbicidal Activity ECHCG ([7]; rate 63 g ai/ha) | Pre-emerge Herbicidal Activity ECHCG ([7]; rate 250 g ai/ha) | Pre-emerge Herbicidal Activity CASOB ([8]; rate 63 g ai/ha) | Pre-emerge Herbicidal Activity CASOB ([8]; rate 250 g ai/ha) | Pre-emerge Herbicidal Activity CHEAL ([9]; rate 63 g ai/ha) | Pre-emerge Herbicidal Activity CHEAL ([9]; rate 250 g ai/ha) | Pre-emerge Herbicidal Activity RICE ([10]; rate 63 g ai/ha) | Pre-emerge Herbicidal Activity RICE ([10]; rate 250 g ai/ha) | other results
COc1c(Cl)cc(F)c(-n2nnn(CCCF)c2=O)c1N [Compound 5-3] | 60 | 100 | 0 | 95 | 70 | 100 | 100 | 100 | 30 | 100 | 0 | 10 | 0 | 20 | 0 | 30 | 100 | 100 | 20 | 20 | Pre-emerge Herbicidal Activity CORN ([11]; rate 63 g ai/ha): 0; Pre-emerge Herbicidal Activity CORN ([11]; rate 250 g ai/ha): 0
C#CCOc1c(Cl)cc(Cl)c(-n2nnn(CCCF)c2=O)c1N [Compound 5-15] | 0 | 0 | 0 | 0 | 0 | 0 | 0 | 0 | 0 | 0 | 0 | 0 | 0 | 0 | 0 | 0 | 0 | 0 | 0 | 0 | Pre-emerge Herbicidal Activity CORN ([11]; rate 63 g ai/ha): 0; Pre-emerge Herbicidal Activity CORN ([11]; rate 250 g ai/ha): 0
CC(C)Oc1c(Cl)cc(Cl)c(-n2nnn(CCCF)c2=O)c1N [Compound 5-16] | 0 | 0 | 0 | 0 | 0 | 0 | 0 | 0 | 0 | 0 | 0 | 0 | 0 | 0 | 0 | 0 | 0 | 20 | 0 | 0 | Pre-emerge Herbicidal Activity CORN ([11]; rate 63 g ai/ha): 0; Pre-emerge Herbicidal Activity CORN ([11]; rate 250 g ai/ha): 0
